Measured values from patent US20130204033A1, “ANTIPROLIFERATIVE COMPOUNDS, CONJUGATES THEREOF, METHODS THEREFOR, AND USES THEREOF” (Medarex, Inc., priority 2009, published 2013).

Assays:
Assay type in all cases: cell-based, human
OVCAR3 = assay: ATP luminescence proliferation assay, OVCAR3; conditions: Homo sapiens, OVCAR-3, 72 h, read-out: EC50 OVCAR3 (72 h), ATP luminescence, OVCAR3, 72 h incubation
Protocol: (§1) This example generally describes the procedures used to assay the antiproliferative activity of compounds of this invention or their conjugates. Human tumor cell lines were obtained from the American Type Culture Collection (ATCC), P.O. Box 1549, Manassas, Va. 20108, USA, and cultured according to instruction from the ATCC. Cells were seeded at 1.0×10^3 or 1.0×10^4 cells/well in 96-well plates for 3 h for ATP assays or ^3H thymidine assays, respectively. 1:3 serial dilutions of free (unconjugated) compounds or their conjugates were added to the wells. Plates were allowed to incubate for 24 to 72 h. The ^3H thymidine plates were pulsed with 1.0 μCi of ^3H-thymidine per well for the last 24 hours of the total incubation period, harvested, and read on a Top Count Scintillation Counter (Packard Instruments, Meriden, Conn.). ATP levels in the ATP plates were measured using the […]-GLO® Luminescent Cell Viability kit following the manufacturer's manual and read on a GLOMAX® 20/20 luminometer (both from Promega, Madison, Wis., USA). The EC50 values—the concentration at which an agent inhibits or reduces cell proliferation by 50% —were determined using PRISM™ software, version 4.0 (GraphPad Software, La Jolla, Calif., USA).
(§2) Using the ^3H thymidine or the ATP luminescence assay, or both, the activities of compounds of this invention were assayed against the following cancer cell lines: HCT-15 (colorectal cancer, multi-drug resistant (MDR)); Hep3B (liver cancer); LNCaP (prostate cancer, androgen receptor positive (AR^+)); MDA-MB-231 (breast cancer, estrogen receptor, progesterone receptor, and Her2 negative (triple negative)); A2058 (melanoma); U-87 MG (glioblastoma); NCI-H460 (NSCLC); A549 (NSCLC); HPAC (pancreatic cancer, primary); PC3 (prostate cancer, AR); BT474 (breast cancer, Her2 highly positive (Her2hi)); SKOV3 (ovarian cancer, Her2hi); 786-O (renal cancer); UO-31 (renal cancer, MDR); NCI-H740 (SCLC); DMS53 (SCLC); SK-BR3 (breast cancer, Her2hi); ZR-75 (breast cancer, estrogen receptor positive); OVCAR3 (ovarian cancer); HL-60 (APL); OVCAR8/Adr (ovarian cancer, MDR); CEM-Cl (ALL); Nomo-1 (AML); RPMI-8226 (MM)); Raji (lymphoma); SW-480 (colorectal cancer, metastatic); SW-620 (colorectal cancer); and H226 (lung cancer). (Not all compounds were assayed against all cell lines.)
(§3) Table 3 provides the data for the ATP luminescence proliferation assays, with an incubation period of 48, 72, or 96 h, as noted.

H226 = assay: ATP luminescence proliferation assay, H226; conditions: Homo sapiens, NCI-H226, 72 h incubation period, read-out: EC50 against the H226 cell line
Protocol: as §1, with “The EC50 values—the concentration at which an agent inhibits or reduces cell proliferation by 50% —were determined using PRISM™ software, version 4.0 (GraphPad Software, La Jolla, Calif., USA).” left out
as §2, with “(Not all compounds were assayed against all cell lines.)” left out

786-O = assay: ATP luminescence proliferation assay, 786-O; conditions: Homo sapiens, 786-0, 48 h, read-out: EC50 786-O (48 h), ATP luminescence, 786-O, 48 h incubation
Protocol: as §1, §2
(§4) FIGS. 12a and 12b show illustrative plots for ATP luminescence proliferation assays for a second set of compounds of this invention, against HL-60 and 786-O cells, respectively, with an incubation period of 72 h. FIGS. 12c and 12d show the plots for ^3H thymidine proliferation assays for the same set of compounds, again against HL-60 and 786-O cells, respectively, with a 72 h incubation period. In each instance, doxorubicin was used as a comparative compound.
as §3

HL-60 = assay: ATP luminescence proliferation assay, HL-60; conditions: Homo sapiens, HL-60, 48 h, read-out: EC50 HL-60 (48 h), ATP luminescence, HL-60, 48 h incubation
Protocol: as §1, §2, §4, §3

OVCAR8/Adr = assay: ATP luminescence proliferation assay, OVCAR8/Adr; conditions: Homo sapiens, OVCAR-8, 48 h incubation period, read-out: EC50 against the OVACAR8/Adr cell line
Protocol: as §1, §2, §3

[1] = system: 786-O renal cancer cells, which are CD70 positive; assay: In vitro activity of conjugates, 3H thymidine proliferation assay, 786-O; conditions: 72 h incubation
Protocol: as §1
The incubation period was 72 h. The EC50 values extracted from the curves of FIG. 13 are given in Table 4, along data from other experiments. […]

Molecule | EC50 (OVCAR3) | EC50 (H226) | EC50 (786-O) | EC50 (HL-60) | EC50 (OVCAR8/Adr) | EC50 [1]
CCCN(C(=O)[C@@H](NC(=O)[C@H]1CCCCN1C)[C@@H](C)CC)[C@H](C[C@@H](OC(C)=O)c1nc(C(=O)N[C@@H](Cc2ccccc2)C(=O)OC)cs1)C(C)C [Compound 109] | 0.202 nM | 1.61 nM | 1.03 nM | 0.019 nM | 24.9 nM | 
diphtheria toxin [DTX] |  |  |  |  |  | 104 nM
